Our source for the water sensitivity and degradation in water values is US20100316713A1, “PHARMACEUTICAL COMPOSITION” (priority 2007, published 2010).

The series can be described thus: stability of the drug substance in water. It counts as physicochemical.

For `CN1CCN(c2nc(C3=C(c4c[nH]c5ccccc45)C(=O)NC3=O)c3ccccc3n2)CC1` [3-(1.H.-indol-3-yl)-4-[2-(4-methyl-piperazin-1-yl)-quinazolin-4-yl]-pyrrole-2,5-dione], under “may convert to free base hydrate, solvate or amorphous form in the presence of ethanol and/or water”, the water sensitivity result was “water sensitive”. The degradation in water entry (water, renders aqueous granulation difficult) was “high degradation”.
